According to patent publication US6525001B1, “Substituted pyrimidine and pyridine herbicides” (Mid-American Commercialization Corporation, priority 1997, dated 2003):

Key:
Assay in all cases: Test B pre-/postemergence
Assay type in all cases: in vivo
Design in all cases: key: 0 is no effect; 10 is complete control
[1] = system: blackgrass (Alopecurus myosuroides)
Outline: (§1)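 Seeds were planted and sprayed preemergence, while plants at 2 to 18 cm (1- to 4-leaf stage) were sprayed postemergence at the same time, with test chemical in a non-phytotoxic solvent mixture containing surfactant. After twelve to sixteen days in a greenhouse, injury was rated visually against untreated controls on a 0–10 scale.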

[2] = system: broadleaf signalgrass (Brachiaria decumbens)
Outline: as §1

[3] = system: cocklebur (Xanthium strumarium)
Outline: as §1

corn (Zea mays) = system: corn (Zea mays)
Outline: as §1

[4] = system: crabgrass (Digitaria sanguinalis)
Outline: as §1

[5] = system: giant foxtail (Setaria faberii)
Outline: as §1

[6] = system: momingglory (Ipomoea hederacea)
Outline: as §1

[7] = system: pigweed (Amaranthus retroflexus)
Outline: as §1

[8] = system: purple nutsedge (Cyperus rotundus)
Outline: as §1

soybean (Glycine max) = system: soybean (Glycine max)
Outline: as §1

[9] = system: sugar beet (Beta vulgaris)
Outline: as §1

[10] = system: velvetleaf (Abutilon theophrasti)
Outline: as §1

[11] = system: wheat (Triticum aestivum)
Outline: as §1

wild oat (Avena fatua) = system: wild oat (Avena fatua)
Outline: as §1

Cc1cnc(-n2cnc(C(F)(F)F)n2)nc1Cn1ccc(C(F)(F)F)n1 [Compound 51]
7: Plant response rating, Blackgrass ([1]; Rate 62 g/ha, Postemergence) | Blackgrass plant response rating ([1]; Rate 62 g/ha, Preemergence) | Plant response rating, Corn (corn (Zea mays); Rate 62 g/ha, Postemergence) | Plant response rating, Nutsedge ([8]; Rate 62 g/ha, Postemergence) | Plant response rating, Velvetleaf ([10]; Rate 62 g/ha, Postemergence) | Plant response rating, Wild oats (wild oat (Avena fatua); Rate 125 g/ha, Preemergence)
10: Plant response rating, Blackgrass ([1]; Rate 250 g/ha, Preemergence) | Plant response rating, Cocklebur ([3]; Rate 125 g/ha, Preemergence) | Plant response rating, Cocklebur ([3]; Rate 250 g/ha, Preemergence) | Crabgrass plant response rating ([4]; Rate 62 g/ha, Preemergence) | Crabgrass plant response rating ([4]; Rate 125 g/ha, Postemergence) | Plant response rating, Crabgrass ([4]; Rate 125 g/ha, Preemergence) | Plant response rating, Crabgrass ([4]; Rate 250 g/ha, Postemergence) | Plant response rating, Crabgrass ([4]; Rate 250 g/ha, Preemergence) | Giant foxtail plant response rating ([5]; Rate 125 g/ha, Postemergence) | Plant response rating, Giant foxtail ([5]; Rate 125 g/ha, Preemergence) | Plant response rating, Giant foxtail ([5]; Rate 250 g/ha, Postemergence) | Plant response rating, Giant foxtail ([5]; Rate 250 g/ha, Preemergence) | Plant response rating, Morningglory ([6]; Rate 62 g/ha, Postemergence) | Morningglory plant response rating ([6]; Rate 62 g/ha, Preemergence) | Morningglory plant response rating ([6]; Rate 125 g/ha, Postemergence) | Plant response rating, Morningglory ([6]; Rate 125 g/ha, Preemergence) | Plant response rating, Morningglory ([6]; Rate 250 g/ha, Postemergence) | Plant response rating, Morningglory ([6]; Rate 250 g/ha, Preemergence) | Plant response rating, Redroot pigweed ([7]; Rate 62 g/ha, Postemergence) | Redroot pigweed plant response rating ([7]; Rate 62 g/ha, Preemergence) | Redroot pigweed plant response rating ([7]; Rate 125 g/ha, Postemergence) | Plant response rating, Redroot pigweed ([7]; Rate 125 g/ha, Preemergence) | Plant response rating, Redroot pigweed ([7]; Rate 250 g/ha, Postemergence) | Plant response rating, Redroot pigweed ([7]; Rate 250 g/ha, Preemergence) | Plant response rating, Soybean (soybean (Glycine max); Rate 250 g/ha, Postemergence) | Plant response rating, Sugarbeets ([9]; Rate 62 g/ha, Postemergence) | Sugarbeets plant response rating ([9]; Rate 62 g/ha, Preemergence) | Sugarbeets plant response rating ([9]; Rate 125 g/ha, Postemergence) | Plant response rating, Sugarbeets ([9]; Rate 125 g/ha, Preemergence) | Plant response rating, Sugarbeets ([9]; Rate 250 g/ha, Postemergence) | Plant response rating, Sugarbeets ([9]; Rate 250 g/ha, Preemergence) | Velvetleaf plant response rating ([10]; Rate 62 g/ha, Preemergence) | Plant response rating, Velvetleaf ([10]; Rate 125 g/ha, Preemergence) | Plant response rating, Velvetleaf ([10]; Rate 250 g/ha, Preemergence)
8: B. signalgrass plant response rating ([2]; Rate 125 g/ha, Postemergence) | Corn plant response rating (corn (Zea mays); Rate 125 g/ha, Postemergence) | Plant response rating, Corn (corn (Zea mays); Rate 125 g/ha, Preemergence) | Plant response rating, Corn (corn (Zea mays); Rate 250 g/ha, Preemergence) | Plant response rating, Giant foxtail ([5]; Rate 62 g/ha, Postemergence) | Giant foxtail plant response rating ([5]; Rate 62 g/ha, Preemergence) | Velvetleaf plant response rating ([10]; Rate 125 g/ha, Postemergence) | Wild oats plant response rating (wild oat (Avena fatua); Rate 62 g/ha, Postemergence) | Plant response rating, Wild oats (wild oat (Avena fatua); Rate 250 g/ha, Preemergence)
4: B. signalgrass plant response rating ([2]; Rate 62 g/ha, Preemergence) | Corn plant response rating (corn (Zea mays); Rate 62 g/ha, Preemergence) | Wild oats plant response rating (wild oat (Avena fatua); Rate 62 g/ha, Preemergence)
9: Blackgrass plant response rating ([1]; Rate 125 g/ha, Postemergence) | Plant response rating, Blackgrass ([1]; Rate 125 g/ha, Preemergence) | Plant response rating, Blackgrass ([1]; Rate 250 g/ha, Postemergence) | Plant response rating, B. signalgrass ([2]; Rate 125 g/ha, Preemergence) | Plant response rating, B. signalgrass ([2]; Rate 250 g/ha, Postemergence) | Plant response rating, B. signalgrass ([2]; Rate 250 g/ha, Preemergence) | Cocklebur plant response rating ([3]; Rate 125 g/ha, Postemergence) | Plant response rating, Cocklebur ([3]; Rate 250 g/ha, Postemergence) | Plant response rating, Corn (corn (Zea mays); Rate 250 g/ha, Postemergence) | Plant response rating, Crabgrass ([4]; Rate 62 g/ha, Postemergence) | Plant response rating, Nutsedge ([8]; Rate 125 g/ha, Preemergence) | Plant response rating, Soybean (soybean (Glycine max); Rate 62 g/ha, Postemergence) | Soybean plant response rating (soybean (Glycine max); Rate 62 g/ha, Preemergence) | Soybean plant response rating (soybean (Glycine max); Rate 125 g/ha, Postemergence) | Plant response rating, Soybean (soybean (Glycine max); Rate 125 g/ha, Preemergence) | Plant response rating, Soybean (soybean (Glycine max); Rate 250 g/ha, Preemergence) | Plant response rating, Velvetleaf ([10]; Rate 250 g/ha, Postemergence) | Wheat plant response rating ([11]; Rate 125 g/ha, Postemergence) | Plant response rating, Wheat ([11]; Rate 250 g/ha, Postemergence) | Wild oats plant response rating (wild oat (Avena fatua); Rate 125 g/ha, Postemergence) | Plant response rating, Wild oats (wild oat (Avena fatua); Rate 250 g/ha, Postemergence)
6: Plant response rating, Cocklebur ([3]; Rate 62 g/ha, Postemergence) | Wheat plant response rating ([11]; Rate 62 g/ha, Postemergence)
2: Plant response rating, B. signalgrass ([2]; Rate 62 g/ha, Postemergence)
5: Plant response rating, Wheat ([11]; Rate 250 g/ha, Preemergence)
3: Cocklebur plant response rating ([3]; Rate 62 g/ha, Preemergence) | Nutsedge plant response rating ([8]; Rate 62 g/ha, Preemergence) | Plant response rating, Wheat ([11]; Rate 125 g/ha, Preemergence)
0: Wheat plant response rating ([11]; Rate 62 g/ha, Preemergence)

Cc1cnc(-c2ccc(C(F)(F)F)cc2)nc1Cc1cccc(OC(F)(F)F)c1 [Compound 15]
1: Cocklebur plant response rating ([3]; Rate 125 g/ha, Preemergence) | Corn plant response rating (corn (Zea mays); Rate 62 g/ha, Preemergence) | Corn plant response rating (corn (Zea mays); Rate 125 g/ha, Preemergence) | Soybean plant response rating (soybean (Glycine max); Rate 125 g/ha, Preemergence) | Plant response rating, Soybean (soybean (Glycine max); Rate 250 g/ha, Preemergence)
3: Plant response rating, Corn (corn (Zea mays); Rate 62 g/ha, Postemergence)
5: Plant response rating, Corn (corn (Zea mays); Rate 250 g/ha, Postemergence) | Plant response rating, Velvetleaf ([10]; Rate 62 g/ha, Postemergence)
10: Blackgrass plant response rating ([1]; Rate 125 g/ha, Preemergence) | Plant response rating, Blackgrass ([1]; Rate 250 g/ha, Preemergence) | Plant response rating, Cocklebur ([3]; Rate 250 g/ha, Postemergence) | Crabgrass plant response rating ([4]; Rate 125 g/ha, Preemergence) | Plant response rating, Crabgrass ([4]; Rate 250 g/ha, Preemergence) | Giant foxtail plant response rating ([5]; Rate 62 g/ha, Preemergence) | Giant foxtail plant response rating ([5]; Rate 125 g/ha, Preemergence) | Plant response rating, Giant foxtail ([5]; Rate 250 g/ha, Preemergence) | Redroot pigweed plant response rating ([7]; Rate 125 g/ha, Preemergence) | Plant response rating, Redroot pigweed ([7]; Rate 250 g/ha, Preemergence) | Sugarbeets plant response rating ([9]; Rate 62 g/ha, Preemergence) | Sugarbeets plant response rating ([9]; Rate 125 g/ha, Preemergence) | Plant response rating, Sugarbeets ([9]; Rate 250 g/ha, Postemergence) | Plant response rating, Sugarbeets ([9]; Rate 250 g/ha, Preemergence)
4: Plant response rating, B. signalgrass ([2]; Rate 62 g/ha, Postemergence) | Plant response rating, B. signalgrass ([2]; Rate 125 g/ha, Postemergence) | Plant response rating, Corn (corn (Zea mays); Rate 125 g/ha, Postemergence) | Morningglory plant response rating ([6]; Rate 62 g/ha, Preemergence) | Velvetleaf plant response rating ([10]; Rate 62 g/ha, Preemergence) | Plant response rating, Wheat ([11]; Rate 62 g/ha, Postemergence) | Plant response rating, Wheat ([11]; Rate 125 g/ha, Postemergence) | Wheat plant response rating ([11]; Rate 125 g/ha, Preemergence)
2: Plant response rating, Corn (corn (Zea mays); Rate 250 g/ha, Preemergence) | Plant response rating, Nutsedge ([8]; Rate 125 g/ha, Postemergence) | Plant response rating, Nutsedge ([8]; Rate 250 g/ha, Postemergence) | Plant response rating, Nutsedge ([8]; Rate 250 g/ha, Preemergence) | Wheat plant response rating ([11]; Rate 62 g/ha, Preemergence)
7: Plant response rating, Giant foxtail ([5]; Rate 62 g/ha, Postemergence) | Plant response rating, Giant foxtail ([5]; Rate 125 g/ha, Postemergence) | Morningglory plant response rating ([6]; Rate 125 g/ha, Preemergence) | Velvetleaf plant response rating ([10]; Rate 125 g/ha, Preemergence) | Plant response rating, Velvetleaf ([10]; Rate 250 g/ha, Preemergence) | Plant response rating, Wheat ([11]; Rate 250 g/ha, Preemergence) | Plant response rating, Wild oats (wild oat (Avena fatua); Rate 125 g/ha, Postemergence)
0: Plant response rating, Nutsedge ([8]; Rate 62 g/ha, Postemergence) | Nutsedge plant response rating ([8]; Rate 62 g/ha, Preemergence) | Nutsedge plant response rating ([8]; Rate 125 g/ha, Preemergence) | Soybean plant response rating (soybean (Glycine max); Rate 62 g/ha, Preemergence)
6: Plant response rating, Blackgrass ([1]; Rate 62 g/ha, Postemergence) | Redroot pigweed plant response rating ([7]; Rate 62 g/ha, Preemergence) | Plant response rating, Wheat ([11]; Rate 250 g/ha, Postemergence) | Plant response rating, Wild oats (wild oat (Avena fatua); Rate 62 g/ha, Postemergence)
8: Plant response rating, B. signalgrass ([2]; Rate 250 g/ha, Postemergence) | Plant response rating, Giant foxtail ([5]; Rate 250 g/ha, Postemergence) | Plant response rating, Morningglory ([6]; Rate 62 g/ha, Postemergence) | Plant response rating, Morningglory ([6]; Rate 125 g/ha, Postemergence) | Plant response rating, Velvetleaf ([10]; Rate 125 g/ha, Postemergence) | Plant response rating, Velvetleaf ([10]; Rate 250 g/ha, Postemergence) | Wild oats plant response rating (wild oat (Avena fatua); Rate 62 g/ha, Preemergence)
9: Blackgrass plant response rating ([1]; Rate 62 g/ha, Preemergence) | Plant response rating, Blackgrass ([1]; Rate 125 g/ha, Postemergence) | Plant response rating, Blackgrass ([1]; Rate 250 g/ha, Postemergence) | B. signalgrass plant response rating ([2]; Rate 62 g/ha, Preemergence) | B. signalgrass plant response rating ([2]; Rate 125 g/ha, Preemergence) | Plant response rating, B. signalgrass ([2]; Rate 250 g/ha, Preemergence) | Plant response rating, Cocklebur ([3]; Rate 62 g/ha, Postemergence) | Plant response rating, Cocklebur ([3]; Rate 125 g/ha, Postemergence) | Plant response rating, Crabgrass ([4]; Rate 62 g/ha, Postemergence) | Crabgrass plant response rating ([4]; Rate 62 g/ha, Preemergence) | Plant response rating, Crabgrass ([4]; Rate 125 g/ha, Postemergence) | Plant response rating, Crabgrass ([4]; Rate 250 g/ha, Postemergence) | Plant response rating, Morningglory ([6]; Rate 250 g/ha, Postemergence) | Plant response rating, Morningglory ([6]; Rate 250 g/ha, Preemergence) | Plant response rating, Redroot pigweed ([7]; Rate 62 g/ha, Postemergence) | Plant response rating, Redroot pigweed ([7]; Rate 125 g/ha, Postemergence) | Plant response rating, Redroot pigweed ([7]; Rate 250 g/ha, Postemergence) | Plant response rating, Soybean (soybean (Glycine max); Rate 62 g/ha, Postemergence) | Plant response rating, Soybean (soybean (Glycine max); Rate 125 g/ha, Postemergence) | Plant response rating, Soybean (soybean (Glycine max); Rate 250 g/ha, Postemergence) | Plant response rating, Sugarbeets ([9]; Rate 62 g/ha, Postemergence) | Plant response rating, Sugarbeets ([9]; Rate 125 g/ha, Postemergence) | Wild oats plant response rating (wild oat (Avena fatua); Rate 125 g/ha, Preemergence) | Plant response rating, Wild oats (wild oat (Avena fatua); Rate 250 g/ha, Postemergence) | Plant response rating, Wild oats (wild oat (Avena fatua); Rate 250 g/ha, Preemergence)
